Experimental data: patent US20240052109A1, “POLYSILOXANE VINYLIC MONOMERS AND USES THEREOF” (Alcon Inc., priority 2022, published 2024)

Assay: Solubility of PDMS vinylic monomer in 1-PrOH:Water mixtures
Format: physicochemical
Conditions: 50-60 mg sample, stirred at room temperature
Method: The solubility of quaternium ammonium containing PDMS vinylic monomer prepared in Example 2 is evaluated in 1-PrOH:Water mixtures. Typically, 50-60 mg of the sample is combined with a selected solvent system and it is stirred/agitated at room temperature. After few minutes compatibility is evaluated. For comparison, the solubilities of three reference materials are also evaluated. The three reference material are: methacryloxypropyl- and n-butyl-terminated polydimiethylsiloxane (D6, Mn=700-800 g/mol) (Ref. 1); methacryloxypropyl- and n-butyl-terminated polydimiethylsiloxane (D9, Mn=900-1,000 g/mol) (Ref. 2); and methyl- and 2-[4-(chloromethyl)phenyl]ethyl-terminated polydimethylsiloxane (Ref. 3).

| Compound | Solubility (compatibility) in 1-PrOH:Water (1-PrOH:Water 0:100) | Solubility (compatibility) in 1-PrOH:Water (1-PrOH:Water 20:80) | Solubility (compatibility) in 1-PrOH:Water (1-PrOH:Water 40:60) | Solubility (compatibility) in 1-PrOH:Water (1-PrOH:Water 60:40) | Solubility (compatibility) in 1-PrOH:Water (1-PrOH:Water 80:20) | Solubility (compatibility) in 1-PrOH:Water (1-PrOH:Water 100:0) |
| --- | --- | --- | --- | --- | --- | --- |
| C=CC(=O)NCCC[N+](C)(C)Cc1ccc(CC[Si](C)(C)O[Si](C)(C)O[Si](C)(C)O[Si](C)(C)O[Si](C)(C)C)cc1 [Example 2] | Hazy | Hazy | Clear | Clear | Clear | Clear |
| methacryloxypropyl- and n-butyl-terminated polydimiethylsiloxane [Ref. 1] | Hazy | Hazy | Hazy | Hazy | Clear | Clear |
| methacryloxypropyl- and n-butyl-terminated polydimiethylsiloxane [Ref. 2] | Hazy | Hazy | Hazy | Hazy | Hazy | Clear |
| methyl- and 2-[4-(chloromethyl)phenyl]ethyl-terminated polydimethylsiloxane [Ref. 3] | Hazy | Hazy | Hazy | Hazy | Clear | Clear |
